Here are results for four compounds from patent US9550796B2, “Pyrrolopyrrolone derivatives and their use as BET inhibitors” (NOVARTIS AG, priority 2013, dated 2017).

In one experiment the target is BRD4 (Homo sapiens (Human), UniProt O60885). Description: TR-FRET in-vitro binding assay for BRD4. To be noted: 45 nM His-Brd4(44-477), acetyl-histone H4 (AcK 5, 8, 12, 16) peptide. A digest of the protocol:
(§1)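 Binding is detected by TR-FRET following incubation for 35 minutes at 30° C.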

Another experiment has as its target BRD2 (Homo sapiens (Human), UniProt P25440). Description: TR-FRET in-vitro binding assay for BRD2. To be noted: 45 nM His-Brd2(60-472), acetyl-histone H4 (AcK 5, 8, 12, 16) peptide. The method in brief: as §1
The target in a further experiment is BRD3 (Homo sapiens (Human), UniProt Q15059). Description: TR-FRET in-vitro binding assay for BRD3. Particulars: 45 nM His-Brd3(20-477), acetyl-histone H4 (AcK 5, 8, 12, 16) peptide. A digest of the protocol: as §1
In general terms: Time-resolved FRET reads energy transfer from a long-lived donor to a nearby acceptor.

Another experiment has as its system MV-4-11. Description: Cell growth inhibition assay (CellTiter-Glo), MV-4-11. Type of experiment: cell-based, human. Particulars: MV-4-11 cells, 4 days; for GI50: Homo sapiens, MV4-11, 96 h, half-maximal growth inhibition; for MV-4-11 TGI: total growth inhibition. A digest of the protocol:
(§2)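 ATP content was quantified with CellTiter-Glo after 4-day compound treatment (top 10 μM, 3-fold steps) at 37 °C. Readings were background- and day-0-corrected, scaled so vehicle equals 100% and medium equals −100%. Four-parameter fits gave half-maximal (IC50) and total growth inhibition concentrations.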
A general note: In ATP-based viability assays light output follows the ATP content of the culture.

A further experiment deals with THP-1. Description: Cell growth inhibition assay (CellTiter-Glo), THP-1. Particulars: THP-1 cells, 4 days; for GI50: Homo sapiens, 96 h, half-maximal growth inhibition; for THP-1 TGI: total growth inhibition. It is filed as cell-based, human. The method in brief:
as §2

The test system of a further experiment is K-562. Description: Cell growth inhibition assay (CellTiter-Glo), K-562. Type of experiment: cell-based, human. To be noted: K-562 cells, 4 days; for GI50: Homo sapiens, K562, 96 h, half-maximal growth inhibition; for K-562 TGI: total growth inhibition. The method in brief: as §2
In another experiment the target is BRD4-NUT-fusion (Homo sapiens, UniProt O60885). Description: Nut-foci formation assay in HCC2494 NUT midline carcinoma cells. Type of experiment: cell-based. To be noted: 24 hours, nuclear BRD4-NUT foci by immunofluorescence microscopy, read-out: HCS Brd4-NUT IC50. Here is the method:
Nut-Foci Formation Assay […] Compound-mediated inhibition of BRD4 activity can be monitored by quantification of the number and intensity of nuclear BRD4-NUT foci using automated immunofluorescence microscopy. Briefly, 5000 cells in 20 μL fresh medium are seeded into Poly-D-Lysine-precoated 384-well plates and incubated overnight at 37° C. and 5% CO2, followed by addition of 5 μl medium containing compound dilutions at 5-fold their final intended concentration. […] Assay plates can be imaged using the appropriate filter sets on the Cellomics VTi automated fluorescence microscopy platform (ThermoFisher Scientific) and the population average of the number of NUT-foci per nucleus is quantified using the Cellomics Spot Detection BioApplication image analysis algorithm (ThermoFisher Scientific). […] Compound concentrations leading to half-maximal (IC50) inhibition of the aforementioned readout parameters are determined using standard four parameter curve fitting.

As a reminder, the IC50 is the concentration that gives 50% inhibition. The GI50 is the concentration giving 50% growth inhibition. A lower GI50 goes with greater sensitivity of the cells.

Sequence of BRD2 (P25440 60-472): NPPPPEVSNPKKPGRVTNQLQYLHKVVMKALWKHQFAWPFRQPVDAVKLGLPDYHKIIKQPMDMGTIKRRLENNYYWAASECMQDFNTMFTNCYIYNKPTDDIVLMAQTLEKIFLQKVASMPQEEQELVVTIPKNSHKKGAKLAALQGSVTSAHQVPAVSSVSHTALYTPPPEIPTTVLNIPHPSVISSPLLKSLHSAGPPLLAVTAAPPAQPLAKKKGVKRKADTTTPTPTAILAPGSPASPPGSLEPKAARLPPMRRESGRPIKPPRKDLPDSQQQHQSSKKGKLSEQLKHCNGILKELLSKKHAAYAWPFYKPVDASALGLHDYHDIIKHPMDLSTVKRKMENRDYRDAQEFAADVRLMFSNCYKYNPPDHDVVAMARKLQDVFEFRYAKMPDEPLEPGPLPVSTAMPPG
Sequence of BRD3 (Q15059 20-477): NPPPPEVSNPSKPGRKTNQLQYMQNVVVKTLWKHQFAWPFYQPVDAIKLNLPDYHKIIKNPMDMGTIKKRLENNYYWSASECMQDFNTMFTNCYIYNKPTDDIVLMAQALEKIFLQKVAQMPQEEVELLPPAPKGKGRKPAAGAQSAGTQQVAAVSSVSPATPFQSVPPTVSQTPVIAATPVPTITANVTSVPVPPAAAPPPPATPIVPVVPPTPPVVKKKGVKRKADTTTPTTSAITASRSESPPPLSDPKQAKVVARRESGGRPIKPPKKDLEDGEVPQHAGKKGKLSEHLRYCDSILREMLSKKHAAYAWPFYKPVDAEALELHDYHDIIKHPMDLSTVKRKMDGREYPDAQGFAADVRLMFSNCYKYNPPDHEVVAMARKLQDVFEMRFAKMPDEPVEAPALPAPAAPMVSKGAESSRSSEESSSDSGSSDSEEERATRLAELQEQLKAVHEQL

For the compound `Cc1cc(N2C(=O)c3cc(-c4ccc(N(C)C)nc4)n(C)c3C2c2ccc(Cl)cc2)cn(C)c1=O` (centres unmarked) [Example 50, 6-(4-chlorophenyl)-5-(1,5-dimethyl-6-oxo-1,6-dihydropyridin-3-yl)-2-(6-(dimethylamino)pyridin-3-yl)-1-methyl-5,6-dihydropyrrolo[3,4-b]pyrrol-4(1H)-one], the IC50 at BRD4 is 46 nM; at BRD2, 37 nM; on BRD3, 42 nM; at BRD4-NUT-fusion it was 73.3 nM. Also, the figures for the GI50 in the experiment on MV-4-11, with THP-1 and with K-562 were 20.8 nM, 31.6 nM and 105 nM, respectively. Also, the “MV-4-11 TGI” value in the experiment on MV-4-11 was 33 nM. Moreover, the “THP-1 TGI” value in the experiment with THP-1 came out at 64.9 nM. In the experiment with K-562, the “K-562 TGI” value was more than 10000 nM.
`COc1ncc(-c2cc3c(n2C)C(c2ccc(Cl)cc2)N(c2cc(C)c(=O)n(C)c2)C3=O)cn1` (centres unmarked) [Example 55, 6-(4-chlorophenyl)-5-(1,5-dimethyl-6-oxo-1,6-dihydropyridin-3-yl)-2-(2-methoxypyrimidin-5-yl)-1-methyl-5,6-dihydropyrrolo[3,4-b]pyrrol-4(1H)-one]: the IC50 on BRD4 was 52 nM; on BRD2, 53 nM; on BRD3 it was 50 nM; on BRD4-NUT-fusion, 146 nM. In addition, the GI50 is 34.5 nM in the experiment on MV-4-11, 76.3 nM in the experiment on THP-1 and 231 nM with K-562. Besides, the “MV-4-11 TGI” value with MV-4-11 amounted to 54.2 nM. Further, the “THP-1 TGI” value in the experiment with THP-1 worked out at 130 nM. The “K-562 TGI” value in the experiment with K-562 was more than 10000 nM.
With `Cc1cc(N2C(=O)c3ccn(C4CC4)c3C2c2ccc(Cl)cc2)cn(C)c1=O` (centres unmarked) [Example 61, 6-(4-chlorophenyl)-1-cyclopropyl-5-(1,5-dimethyl-6-oxo-1,6-dihydropyridin-3-yl)-5,6-dihydropyrrolo[3,4-b]pyrrol-4(1H)-one], the IC50 on BRD4 worked out at 68 nM; at BRD2, 68 nM; at BRD3, 53 nM; on BRD4-NUT-fusion it was 136 nM. The GI50 in the experiment on MV-4-11 was found to be 61.6 nM; in the experiment with THP-1, 102 nM; with K-562, 421 nM. In addition, in the experiment on MV-4-11, the “MV-4-11 TGI” value was determined as 106 nM. Further, the “THP-1 TGI” value in the experiment with THP-1 came out at 224 nM. Also, the “K-562 TGI” value with K-562 is more than 10000 nM.
`Cn1ccc2c1C(c1ccc(Cl)cc1)N(c1ccc(=O)n(C)c1)C2=O` (centres unmarked) [Example 78, 6-(4-chlorophenyl)-1-methyl-5-(1-methyl-6-oxo-1,6-dihydropyridin-3-yl)-5,6-dihydropyrrolo[3,4-b]pyrrol-4(1H)-one] came in with an IC50 on BRD4 of 150 nM. For the same compound, in the experiment with MV-4-11, it took 486 nM to inhibit growth by half (GI50) and the “MV-4-11 TGI” value was 794.5 nM. Further, in the experiment on THP-1, the GI50 was found to be 573 nM and the “THP-1 TGI” value was 1350 nM. In addition, in the experiment on K-562, it took 1610 nM to inhibit growth by half (GI50) and the “K-562 TGI” value is more than 10000 nM. For the same compound, the IC50 on BRD4-NUT-fusion was found to be 729 nM.
